Reference: patent US20240279220A1, “INDOLE COMPOUNDS AND METHODS OF USE” (Genzyme Corporation, priority 2021, published 2024)

System: NBD1/3D
Test: Aggregation analysis using differential static light scattering (DSLS), NBD1 thermal stability
Assay type: binding, Human
Details: ΔTagg versus DMSO control; compound at 100 μM
Outline: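 Purified NBD1 at 0.2 mg/ml in S200 buffer (pH 7.6, 2 mM ATP, 5 mM MgCl2, 1% glycerol) was heated with compound at 1 °C/min to 70 °C. Tagg taken from the light-scattering curve inflection point; ΔTagg = compound Tagg minus mean DMSO control Tagg.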

Structure (SMILES) | DSLS NBD1/3D Human Stability delta-T (° C.) @ 100 (μM)
CP(C)(=O)c1c(Oc2cccc(-c3nc(Cc4cccc(CCC(=O)O)c4)cs3)c2)c(F)cc2[nH]ccc12 [Example 92, 3-(3-((2-(3-((4-(Dimethylphosphoryl)-6-fluoro-1H-indol-5-yl)oxy)phenyl)thiazol-4-__yl)methy)phenyl)propanoic acid] | B (B: 5-10° C.)
CS(=O)(=O)c1c(Oc2ccc(F)c(-c3ncc(C4(c5cccc(CCC(=O)O)c5)OCCCO4)[nH]3)c2)c(F)cc2[nH]ccc12 [Example 44, 3-(3-(2-(2-(2-Fluoro-5-((6-fluoro-4-(methylsulfonyl)-1H-indol-5-yl)oxy)phenyl)-1H-imidazol-5-yl)-1,3-dioxan-2-yl)phenyl)propanoic acid] | A (A: T ≥ 10° C.)
O=C(O)CCc1cccc(C(O)c2c[nH]c(-c3cc(Oc4c(F)cc5[nH]ccc5c4F)ccc3F)n2)c1 (stereo not drawn) [Example 177, 3-(3-((2-(5-((4,6-difluoro-1H-indol-5-yl)oxy)-2-fluorophenyl)-1H-imidazol-4-yl)(hydroxy)methyl)phenyl)propanoic acid] | A (A: T ≥ 10° C.)
O=C(O)CCc1cccc(Cc2cnc(-c3cc(Oc4c(F)cc5[nH]ccc5c4F)ccc3F)[nH]2)c1Cl [Example 110, 3-(2-chloro-3-((2-(5-((4,6-difluoro-1H-indol-5-yl)oxy)-2-fluorophenyl)-1H-imidazol-5-yl)methyl)phenyl)propanoic acid] | B (B: 5-10° C.)
Cc1c(Oc2ccc(F)c(-c3ncc([C@]4(c5cccc(CCC(=O)O)c5)C[C@@H](O)CO4)[nH]3)c2)c(F)cc2[nH]ccc12 (racemic) [Example 275, rac-3-(3-((2r,4r)-2-(2-(2-Fluoro-5-((6-fluoro-4-methyl-1H-indol-5-yl)oxy)phenyl)-1H-imidazol-5-yl)-4-hydroxytetrahydrofuran-2-yl)phenyl)propanoic acid] | B (B: 5-10° C.)
CC(O)(c1cccc(CCC(=O)O)c1)c1c[nH]c(-c2cc(C(O)c3ccc4[nH]ccc4c3)ccc2F)n1 (stereo not drawn) [Example 218, 3-(3-(1-(2-(2-Fluoro-5-(hydroxy(1H-indol-5-yl)methyl)phenyl)-1H-imidazol-4-yl)-1-hydroxyethyl)phenyl)propanoic acid] | B (B: 5-10° C.)
O=C(O)CCc1cccc(C2(c3cnc(-c4cc(Oc5c(F)cc6[nH]ccc6c5F)ccc4F)[nH]3)OCCCO2)c1 [Example 228, 3-(3-(2-(2-(5-((4,6-difluoro-1H-indol-5-yl)oxy)-2-fluorophenyl)-1H-imidazol-5-yl)-1,3-dioxan-2-yl)phenyl)propanoic acid] | A (A: T ≥ 10° C.)
CS(=O)(=O)c1c(Oc2cccc(-c3nc(Cc4cccc(CCC(=O)O)c4)cs3)c2)c(F)cc2[nH]ccc12 [Example 35, 3-(3-((2-(3-((6-Fluoro-4-(methylsulfonyl)-1H-indol-5-yl)oxy)phenyl)thiazol-4-yl)methyl)phenyl)propanoic acid] | B (B: 5-10° C.)
CC(C)OCCOCCC(c1cnc(-c2cc(Oc3c(F)cc4[nH]ccc4c3F)ccc2F)[nH]1)c1cccc(CCC(=O)O)c1F (single isomer, unassigned) [Example 130A, 3-(3-(1-(2-(5-((4,6-difluoro-1H-indol-5-yl)oxy)-2-fluorophenyl)-1H-imidazol-5-yl)-3-(2-isopropoxyethoxy)propyl)-2-fluorophenyl)propanoic acid] | C (C: ≤5° C.)
CC(c1cnc(-c2cc(Oc3c(F)cc4[nH]ccc4c3CP(C)(C)=O)ccc2F)[nH]1)c1cccc(CCC(=O)O)c1F (single isomer, unassigned) [Example 133A, 3-(3-(1-(2-(5-((4-((dimethylphosphoryl)methyl)-6-fluoro-1H-indol-5-yl)oxy)-2-fluorophenyl)-1H-imidazol-5-yl)ethyl)-2-fluorophenyl)propanoic acid] | C (C: ≤5° C.)
O=C(O)CCc1cccc(Cc2cnc(-c3cc(Oc4ccc5[nH]ccc5c4C(F)(F)F)ccc3F)[nH]2)c1 [Example 104, 3-(3-((2-(2-fluoro-5-((4-(trifluoromethyl)-1H-indol-5-yl)oxy)phenyl)-1H-imidazol-5-yl)methyl)phenyl)propanoic acid] | B (B: 5-10° C.)
CS(=O)(=O)c1c(Oc2ccc(F)c(-c3ncc(Cc4ccc5c(c4)CC(C(=O)O)C5)[nH]3)c2)c(F)cc2[nH]ccc12 (single isomer, unassigned) [Example 83A, 5-((2-(2-Fluoro-5-((6-fluoro-4-(methylsulfonyl)-1H-indol-5-yl)oxy)phenyl)-1H-imidazol-5-yl)methyl)-2,3-dihydro-1H-indene-2-carboxylic acid] | B (B: 5-10° C.)
CC(Cc1cccc(C(C)c2cnc(-c3cc(Oc4c(F)cc5[nH]ccc5c4F)ccc3F)[nH]2)c1F)C(=O)O (single isomer, unassigned) [Example 137C, 3-(3-(1-(2-(5-((4,6-difluoro-1H-indol-5-yl)oxy)-2-fluorophenyl)-1H-imidazol-5-yl)ethyl)-2-fluorophenyl)-2-methylpropanoic acid] | C (C: ≤5° C.)
O=C(O)CCc1cccc(Cc2cnc(-c3cccc(Oc4c(F)cc5[nH]ccc5c4SC(F)(F)F)c3)[nH]2)c1 [Example 102, 3-(3-((2-(3-((6-fluoro-4-((trifluoromethyl)thio)-1H-indol-5-yl)oxy)phenyl)-1H-imidazol-5-yl)methyl)phenyl)propanoic acid] | B (B: 5-10° C.)
O=C(O)CCc1cccc(Cc2cnc(-c3cc(Oc4c(F)cc5[nH]ccc5c4CNCC(F)(F)F)ccc3F)[nH]2)c1 [Example 265, 3-(3-((2-(2-Fluoro-5-((6-fluoro-4-(((2,2,2-trifluoroethyl)amino)methyl)-1H-indol-5-yl)oxy)phenyl)-1H-imidazol-5-yl)methyl)phenyl)propanoic acid] | B (B: 5-10° C.)
Cc1c(Oc2cccc(-c3ncc(C(O)c4cccc(C5CC5C(=O)O)c4)[nH]3)c2)ccc2[nH]ccc12 (stereo not drawn) [Example 176, 2-(3-(hydroxy(2-(3-((4-methyl-1H-indol-5-yl)oxy)phenyl)-1H-imidazol-5-yl)methyl)phenyl)cyclopropane-1-carboxylic acid] | B (B: 5-10° C.)
CC(O)(c1cccc(CCC(=O)O)c1)c1cnc(-c2cc(Oc3c(F)cc4[nH]ccc4c3CCF)ccc2F)[nH]1 (stereo not drawn) [Example 200, 3-(3-(1-(2-(2-fluoro-5-((6-fluoro-4-(2-fluoroethyl)-1H-indol-5-yl)oxy)phenyl)-1H-imidazol-5-yl)-1-hydroxyethyl)phenyl) propanoic acid] | A (A: T ≥ 10° C.)
Cc1c(Oc2cccc(-c3c(F)cnn3Cc3cccc(CCC(=O)O)c3)c2)c(F)cc2[nH]ccc12 [Example 20, 3-(3-((4-Fluoro-5-(3-((6-fluoro-4-methyl-1H-indol-5-yl)oxy)phenyl)-1H-pyrazol-1-yl)methyl)phenyl)propanoic acid] | C (C: ≤5° C.)
CCC(O)(c1cccc(CCC(=O)O)c1)c1cnc(-c2cc(Oc3c(F)cc4[nH]ccc4c3C)ccc2F)[nH]1 (stereo not drawn) [Example 223, 3-(3-(1-(2-(2-fluoro-5-((6-fluoro-4-methyl-1H-indol-5-yl)oxy)phenyl)-1H-imidazol-5-yl)-1-hydroxypropyl)phenyl) propanoic acid] | B (B: 5-10° C.)
CC(O)(c1cccc(CS(N)(=O)=O)c1)c1cnc(-c2cccc(Oc3c(F)cc4[nH]ccc4c3F)c2)[nH]1 (stereo not drawn) [Example 209, (3-(1-(2-(3-((4,6-difluoro-1H-indol-5-yl)oxy)phenyl)-1H-imidazol-5-yl)-1-hydroxyethyl)phenyl) methanesulfonamide] | B (B: 5-10° C.)
CC(C)(c1cnc(-c2cc(Oc3c(F)cc4[nH]ccc4c3CC(F)(F)F)ccc2F)[nH]1)c1cccc(CCC(=O)O)c1F [Example 163, 3-(2-fluoro-3-(2-(2-(2-fluoro-5-((6-fluoro-4-(2,2,2-trifluoroethyl)-1H-indol-5-yl)oxy)phenyl)-1H-imidazol-5-yl)propan-2-yl)phenyl)propanoic acid] | B (B: 5-10° C.)
CC(c1c[nH]c(-c2cc(Oc3c(F)cc4[nH]ccc4c3S(C)(=N)=O)ccc2F)n1)c1cccc(CCC(=O)O)c1F (single isomer, unassigned) [Example 136D, 3-(2-fluoro-3-(1-(2-(2-fluoro-5-((6-fluoro-4-(S-methylsulfonimidoyl)-1H-indol-5-yl)oxy)phenyl)-1H-imidazol-4-yl)ethyl)phenyl)propanoic acid] | B (B: 5-10° C.)
NCc1c(CCC(=O)O)cccc1Cc1cnc(-c2cc(Oc3c(F)cc4[nH]ccc4c3F)ccc2F)[nH]1 [Example 141, 3-(2-(Aminomethyl)-3-((2-(5-((4,6-difluoro-1H-indol-5-yl)oxy)-2-fluorophenyl)-1H-imidazol-5-yl)methyl)phenyl)propanoic acid] | C (C: ≤5° C.)
CS(=O)(=O)c1c(Oc2ccc(F)c(-c3nc(C4(c5cccc(CCC(=O)O)c5)CC(F)(F)C4)cs3)c2)c(F)cc2[nH]ccc12 [Example 79, 3-(3-(3,3-Difluoro-1-(2-(2-fluoro-5-((6-fluoro-4-(methylsulfonyl)-1H-indol-5-yl)oxy)phenyl)thiazol-4-yl)cyclobutyl)phenyl)propanoic acid] | B (B: 5-10° C.)
